According to ChEMBL document CHEMBL1201862, “PubChem BioAssay data set” (2004):
Active and inactive are the calls of the source.

Experiments:
[1] = molecular target: T1, High affinity choline transporter 1 (Homo sapiens, UniProt Q9GZV3); experiment: CHT inhibitors, dose response, cell-based, 5-point CRC, membrane potential dye (AID 504840); type: functional
T1 sequence (Q9GZV3 whole entry): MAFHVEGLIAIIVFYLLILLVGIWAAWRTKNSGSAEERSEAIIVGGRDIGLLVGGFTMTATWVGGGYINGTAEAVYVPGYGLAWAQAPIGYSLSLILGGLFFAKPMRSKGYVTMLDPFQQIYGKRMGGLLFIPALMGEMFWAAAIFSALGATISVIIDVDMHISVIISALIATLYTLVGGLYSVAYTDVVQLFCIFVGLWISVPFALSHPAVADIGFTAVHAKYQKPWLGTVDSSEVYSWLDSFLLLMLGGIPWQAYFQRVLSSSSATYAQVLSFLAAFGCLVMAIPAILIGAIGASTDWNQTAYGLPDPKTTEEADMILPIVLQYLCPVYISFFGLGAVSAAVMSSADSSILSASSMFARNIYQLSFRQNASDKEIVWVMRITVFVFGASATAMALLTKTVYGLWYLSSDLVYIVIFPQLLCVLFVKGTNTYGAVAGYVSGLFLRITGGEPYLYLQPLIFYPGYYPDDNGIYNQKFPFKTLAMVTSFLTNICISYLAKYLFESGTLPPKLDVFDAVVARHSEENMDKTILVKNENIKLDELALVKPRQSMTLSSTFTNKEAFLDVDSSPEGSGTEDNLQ

[2] = molecular target: T1, High affinity choline transporter 1; experiment: CHT inhibitors, dose response, cell-based, 10-point CRC, membrane potential dye (AID 588401); type: functional;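 further: membrane potential dye fluorescence of choline-evoked depolarization via CHT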
[3] = A cytotoxicity screen of small molecule inhibitors of the PhoP region in Salmonella typhi identified in the primary screen. [Related pubchem assays: 1850, 1864, 1985 ]; type: functional
HEK293 = experiment: inhibitors of LMP1-driven NF-kB reporter, dose response, cell-based, HEK293, luciferase, cherry-pick (AID 588343); type: functional; details: Homo sapiens
[4] = molecular target: T2, C-C chemokine receptor type 6 (Homo sapiens, UniProt P51684); experiment: CCR6 receptor antagonists, dose response, cell-based, luminescent beta-arrestin readout (AID 504728); type: functional
T2 sequence (P51684 whole entry): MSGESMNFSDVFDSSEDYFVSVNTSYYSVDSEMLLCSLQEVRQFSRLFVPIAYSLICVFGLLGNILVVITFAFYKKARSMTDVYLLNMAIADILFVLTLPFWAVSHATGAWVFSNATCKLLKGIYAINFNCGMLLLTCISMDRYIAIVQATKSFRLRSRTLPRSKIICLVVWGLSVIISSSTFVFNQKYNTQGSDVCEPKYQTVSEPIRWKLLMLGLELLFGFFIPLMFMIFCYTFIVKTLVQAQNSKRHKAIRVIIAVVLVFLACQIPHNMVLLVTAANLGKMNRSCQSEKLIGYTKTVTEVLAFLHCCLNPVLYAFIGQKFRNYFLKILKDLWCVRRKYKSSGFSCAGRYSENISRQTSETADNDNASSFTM

Beta-galactosidase = Beta-galactosidase (Escherichia coli, UniProt Q8VNN2); experiment: beta-galactosidase enzyme inhibitors and activators, dose response, artefact control for CCR6 antagonist project, biochemical, E. coli enzyme, set 3 (AID 504712); type: functional
Melanocortin receptor 4 = Melanocortin receptor 4 (Homo sapiens, UniProt P32245); experiment: MC4R antagonist potency on cAMP, dose response, cell-based, TR-FRET, biased antagonists (AID 602298); type: functional;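 further: antagonist potency against agonist-stimulated cAMP production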
[5] = nonselective inhibitors of cellular cAMP signaling, dose response, counter-screen for MC4R biased antagonist project, cell-based, TR-FRET cAMP detection (AID 602305); type: functional;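 further: U2OS cells stimulated with forskolin near its EC80 as the cAMP inducer; potency is for inhibition of forskolin-stimulated cAMP signaling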
Hexokinase HKDC1 = molecular target: T3, Hexokinase HKDC1 (Homo sapiens, UniProt Q2TB90); experiment: HKDC1 hexokinase inhibitors, dose response, biochemical, W721R variant (AID 504729); type: functional
T3 sequence (Q2TB90 whole entry): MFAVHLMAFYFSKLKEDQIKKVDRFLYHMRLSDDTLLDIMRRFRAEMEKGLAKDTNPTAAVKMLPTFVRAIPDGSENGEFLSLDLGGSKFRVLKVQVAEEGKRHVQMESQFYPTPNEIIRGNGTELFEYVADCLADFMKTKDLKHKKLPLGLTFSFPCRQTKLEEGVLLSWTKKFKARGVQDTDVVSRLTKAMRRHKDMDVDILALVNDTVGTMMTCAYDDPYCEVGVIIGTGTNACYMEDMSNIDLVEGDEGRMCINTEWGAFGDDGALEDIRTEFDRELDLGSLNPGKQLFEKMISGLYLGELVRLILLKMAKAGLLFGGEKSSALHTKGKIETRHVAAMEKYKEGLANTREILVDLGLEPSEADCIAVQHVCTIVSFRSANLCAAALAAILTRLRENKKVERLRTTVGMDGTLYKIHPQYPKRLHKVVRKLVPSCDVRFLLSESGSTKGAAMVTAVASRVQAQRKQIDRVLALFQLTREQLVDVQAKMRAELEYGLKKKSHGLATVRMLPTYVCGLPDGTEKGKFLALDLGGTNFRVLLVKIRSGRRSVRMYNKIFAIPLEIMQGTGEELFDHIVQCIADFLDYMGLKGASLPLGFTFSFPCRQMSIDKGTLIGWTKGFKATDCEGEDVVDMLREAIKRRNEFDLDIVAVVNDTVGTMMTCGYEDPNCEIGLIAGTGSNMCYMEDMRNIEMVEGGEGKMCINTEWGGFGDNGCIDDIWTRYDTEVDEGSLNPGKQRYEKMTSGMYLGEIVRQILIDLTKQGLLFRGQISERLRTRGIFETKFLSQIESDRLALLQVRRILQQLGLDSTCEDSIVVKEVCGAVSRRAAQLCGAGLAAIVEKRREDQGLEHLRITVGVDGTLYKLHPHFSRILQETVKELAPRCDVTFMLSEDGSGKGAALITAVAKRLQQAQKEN

Cysteine protease ATG4B = molecular target: T4, Cysteine protease ATG4B (Homo sapiens, UniProt Q9Y4P1); type: functional;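 further: Fluorescence-based dose-response confirmation assay measuring inhibition of ATG4B activity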
T4 sequence (Q9Y4P1 whole entry): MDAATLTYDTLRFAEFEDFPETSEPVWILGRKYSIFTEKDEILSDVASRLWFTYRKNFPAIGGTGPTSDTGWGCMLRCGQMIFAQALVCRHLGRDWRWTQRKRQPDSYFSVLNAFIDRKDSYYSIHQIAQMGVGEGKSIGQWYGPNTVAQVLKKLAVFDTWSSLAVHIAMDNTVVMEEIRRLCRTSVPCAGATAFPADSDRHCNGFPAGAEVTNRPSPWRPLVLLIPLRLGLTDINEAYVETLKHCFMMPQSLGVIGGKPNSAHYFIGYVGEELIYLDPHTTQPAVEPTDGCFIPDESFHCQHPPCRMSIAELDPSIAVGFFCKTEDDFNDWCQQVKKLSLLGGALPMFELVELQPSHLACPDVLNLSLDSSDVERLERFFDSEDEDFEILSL

Phospholipase A2 = Phospholipase A2 (Homo sapiens, UniProt P04054); type: functional;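 further: confirmatory dose-response counterscreen on phospholipase A2, testing hits that came from an ultra-high-throughput screen for ATG4B inhibitors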
Genome polyprotein = Genome polyprotein (dengue virus type 2, UniProt P29990); experiment: Dengue-2 NS5 methyltransferase inhibitors, primary screen, biochemical, confirmation dose response (AID 588689); type: functional
[6] = molecular target: T5, Ubiquitin-conjugating enzyme E2 N (Homo sapiens, UniProt P61088); type: functional;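 further: Dose-response confirmation in a TR-FRET assay detecting UBC13-driven polyubiquitin chain formation, inhibition measured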
T5 sequence (P61088 whole entry): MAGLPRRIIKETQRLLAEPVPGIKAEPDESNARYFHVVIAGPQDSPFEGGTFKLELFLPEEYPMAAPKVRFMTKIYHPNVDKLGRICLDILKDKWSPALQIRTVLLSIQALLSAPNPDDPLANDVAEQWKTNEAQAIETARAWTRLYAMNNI

[7] = molecular target: Ras and Rab interactor 1/Tyrosine-protein kinase ABL1 (Homo sapiens, UniProt P00519+Q13671); type: functional;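 further: biochemical TR-FRET dose-response test measuring inhibition of binding between Rin1 and Abl proteins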
[8] = molecular target: Ribosomal protein S6 kinase beta-1 (Homo sapiens, UniProt P23443); type: functional;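 further: measured as one member of a kinome-wide profiling panel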
[9] = molecular target: Proto-oncogene tyrosine-protein kinase ROS (Homo sapiens, UniProt P08922); type: functional;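 further: ROS1 tested as one member of a kinome-wide kinase panel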
[10] = test system: Streptococcus sp. 'group A'; experiment: growth inhibition of control SK(-) GAS strain, dose response, counter-screen for streptokinase expression inhibitor project, luminescence, kanamycin, BacTiterGlo, confirmation (AID 1900); type: functional, organism-based
Estrogen receptor = molecular target: T6, Estrogen receptor (Homo sapiens, UniProt P03372);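 further: potency for inhibiting coactivator peptide recruitment to the receptor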
T6 sequence (P03372 whole entry): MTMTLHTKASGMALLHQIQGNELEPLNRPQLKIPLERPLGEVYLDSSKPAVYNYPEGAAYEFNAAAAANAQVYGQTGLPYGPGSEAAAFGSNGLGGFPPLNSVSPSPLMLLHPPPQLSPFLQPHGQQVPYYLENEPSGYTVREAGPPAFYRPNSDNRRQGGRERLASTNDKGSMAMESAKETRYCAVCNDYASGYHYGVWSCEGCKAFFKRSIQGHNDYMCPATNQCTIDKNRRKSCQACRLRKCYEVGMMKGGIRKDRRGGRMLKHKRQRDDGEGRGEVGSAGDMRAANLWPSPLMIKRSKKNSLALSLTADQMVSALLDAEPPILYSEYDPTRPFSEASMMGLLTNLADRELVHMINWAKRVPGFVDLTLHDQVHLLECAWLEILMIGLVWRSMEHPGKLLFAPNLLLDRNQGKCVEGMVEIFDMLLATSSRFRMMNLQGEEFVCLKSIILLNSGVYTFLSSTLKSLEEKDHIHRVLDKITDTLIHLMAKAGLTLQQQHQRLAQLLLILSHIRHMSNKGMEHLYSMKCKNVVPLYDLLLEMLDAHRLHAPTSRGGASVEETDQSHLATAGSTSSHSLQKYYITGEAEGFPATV

Estrogen receptor beta [11] = molecular target: T7, Estrogen receptor beta (Homo sapiens, UniProt Q92731);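 further: recombinant ER-beta bound to coactivator SRC1 peptide in presence of estradiol agonist; inhibitors block coactivator peptide binding and lower the FRET signal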
Estrogen receptor beta [12] = molecular target: T7, Estrogen receptor beta; experiment: ERβ–SRC-3 coactivator interaction inhibitors, confirmation, orthogonal assay, biochemical, ELISA, streptavidin-HRP readout (AID 1060)
Streptococcus = experiment: Group A Streptococcus viability loss, dose response, counter-screen for streptokinase expression inhibitor project, luminescence, BacTiterGlo (AID 1915); type: functional, organism-based;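 further: potency for reduction of bacterial viability or growth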
Nonstructural protein 1 = Nonstructural protein 1 (Influenza A virus, UniProt Q194T2); type: functional, Influenza A virus (A/California/07/2009(H1N1))
[13] = molecular target: DNA (cytosine-5)-methyltransferase 1 (Homo sapiens, UniProt P26358); experiment: DNMT1 methyltransferase inhibitors, confirmation, biochemical, fluorescent molecular beacon (AID 602386); type: functional
LIM domain kinase 1 = LIM domain kinase 1 (Homo sapiens, UniProt P53667); experiment: Navigating the Kinome. Panel member name: LIMK1; type: functional
[14] = molecular target: Rho-associated protein kinase 1 (Homo sapiens, UniProt Q13464); type: functional;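 further: measured within a broad kinome-wide panel profiling many kinases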
[15] = molecular target: Cyclin-dependent kinase 8 (Homo sapiens, UniProt P49336); experiment: Navigating the Kinome. Panel member name: CDK8; type: functional
[16] = molecular target: Vascular endothelial growth factor receptor 1 (Homo sapiens, UniProt P17948); type: functional;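 further: measured within a kinome-wide profiling panel, FLT1 as the panel member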
[17] = molecular target: Cyclin-dependent kinase 9 (Homo sapiens, UniProt P50750); type: functional;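 further: value from the CDK9 entry of a kinome-spanning kinase panel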
[18] = molecular target: Dual specificity protein kinase CLK4 (Homo sapiens, UniProt Q9HAZ1); type: functional

Sequence of Genome polyprotein (P29990 2492-3391 limits assumed): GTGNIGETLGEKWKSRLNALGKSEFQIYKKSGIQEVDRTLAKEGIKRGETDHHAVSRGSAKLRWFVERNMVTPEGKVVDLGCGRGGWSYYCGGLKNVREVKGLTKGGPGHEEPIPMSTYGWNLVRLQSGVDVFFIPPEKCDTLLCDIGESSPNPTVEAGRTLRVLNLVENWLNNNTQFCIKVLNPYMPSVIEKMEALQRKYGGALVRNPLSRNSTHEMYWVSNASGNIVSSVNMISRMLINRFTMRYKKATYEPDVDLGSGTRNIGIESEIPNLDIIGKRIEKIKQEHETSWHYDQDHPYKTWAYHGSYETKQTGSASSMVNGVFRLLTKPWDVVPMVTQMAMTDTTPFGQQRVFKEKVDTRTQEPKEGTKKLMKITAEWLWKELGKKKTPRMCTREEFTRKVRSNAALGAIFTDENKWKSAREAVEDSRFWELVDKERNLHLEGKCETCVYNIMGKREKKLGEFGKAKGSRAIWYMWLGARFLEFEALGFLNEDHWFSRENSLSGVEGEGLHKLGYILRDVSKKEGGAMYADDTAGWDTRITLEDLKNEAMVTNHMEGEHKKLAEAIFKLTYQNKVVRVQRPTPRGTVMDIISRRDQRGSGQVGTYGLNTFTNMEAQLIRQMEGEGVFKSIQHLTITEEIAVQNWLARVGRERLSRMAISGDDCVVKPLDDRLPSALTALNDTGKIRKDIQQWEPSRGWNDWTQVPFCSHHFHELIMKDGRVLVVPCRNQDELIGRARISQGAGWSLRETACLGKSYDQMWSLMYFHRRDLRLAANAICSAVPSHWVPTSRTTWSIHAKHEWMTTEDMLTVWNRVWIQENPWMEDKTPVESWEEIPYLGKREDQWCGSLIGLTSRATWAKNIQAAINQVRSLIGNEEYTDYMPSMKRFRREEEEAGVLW
Sequence of Beta-galactosidase (Q8VNN2 whole entry): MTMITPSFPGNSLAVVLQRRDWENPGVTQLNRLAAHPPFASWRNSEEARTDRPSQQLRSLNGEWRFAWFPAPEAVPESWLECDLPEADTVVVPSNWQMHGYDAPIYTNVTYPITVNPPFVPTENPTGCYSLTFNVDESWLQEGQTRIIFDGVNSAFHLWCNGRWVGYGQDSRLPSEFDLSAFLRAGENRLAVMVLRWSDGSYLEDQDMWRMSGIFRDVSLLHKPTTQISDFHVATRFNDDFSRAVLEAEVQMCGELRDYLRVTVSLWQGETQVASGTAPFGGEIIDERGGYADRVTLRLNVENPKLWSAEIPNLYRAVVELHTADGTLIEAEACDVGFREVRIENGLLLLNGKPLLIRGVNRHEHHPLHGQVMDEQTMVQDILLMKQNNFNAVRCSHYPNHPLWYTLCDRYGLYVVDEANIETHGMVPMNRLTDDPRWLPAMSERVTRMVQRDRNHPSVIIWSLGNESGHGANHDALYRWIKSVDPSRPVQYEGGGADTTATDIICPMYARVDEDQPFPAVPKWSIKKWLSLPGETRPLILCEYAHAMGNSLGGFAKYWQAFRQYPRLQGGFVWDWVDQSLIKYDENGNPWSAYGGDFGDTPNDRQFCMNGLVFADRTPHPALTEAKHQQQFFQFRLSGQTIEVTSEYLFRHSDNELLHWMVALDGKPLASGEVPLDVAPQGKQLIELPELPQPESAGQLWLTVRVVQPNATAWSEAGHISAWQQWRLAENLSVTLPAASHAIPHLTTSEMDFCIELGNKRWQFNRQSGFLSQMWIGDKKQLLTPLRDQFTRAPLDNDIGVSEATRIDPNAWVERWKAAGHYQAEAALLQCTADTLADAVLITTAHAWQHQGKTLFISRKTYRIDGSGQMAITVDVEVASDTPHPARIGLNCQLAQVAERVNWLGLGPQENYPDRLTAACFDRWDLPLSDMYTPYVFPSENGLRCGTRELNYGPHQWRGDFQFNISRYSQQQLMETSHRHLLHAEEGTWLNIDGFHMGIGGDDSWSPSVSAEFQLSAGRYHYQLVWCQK
Sequence of Melanocortin receptor 4 (P32245 whole entry): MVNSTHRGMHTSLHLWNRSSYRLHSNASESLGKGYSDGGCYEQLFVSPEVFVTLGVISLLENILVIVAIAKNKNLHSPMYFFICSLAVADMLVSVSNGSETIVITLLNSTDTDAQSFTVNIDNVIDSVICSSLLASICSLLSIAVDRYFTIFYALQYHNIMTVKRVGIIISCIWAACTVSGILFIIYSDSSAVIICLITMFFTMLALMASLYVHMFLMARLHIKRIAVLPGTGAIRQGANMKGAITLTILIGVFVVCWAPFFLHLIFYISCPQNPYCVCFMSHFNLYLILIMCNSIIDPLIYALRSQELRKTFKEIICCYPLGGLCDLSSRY
T7 sequence (Q92731 whole entry): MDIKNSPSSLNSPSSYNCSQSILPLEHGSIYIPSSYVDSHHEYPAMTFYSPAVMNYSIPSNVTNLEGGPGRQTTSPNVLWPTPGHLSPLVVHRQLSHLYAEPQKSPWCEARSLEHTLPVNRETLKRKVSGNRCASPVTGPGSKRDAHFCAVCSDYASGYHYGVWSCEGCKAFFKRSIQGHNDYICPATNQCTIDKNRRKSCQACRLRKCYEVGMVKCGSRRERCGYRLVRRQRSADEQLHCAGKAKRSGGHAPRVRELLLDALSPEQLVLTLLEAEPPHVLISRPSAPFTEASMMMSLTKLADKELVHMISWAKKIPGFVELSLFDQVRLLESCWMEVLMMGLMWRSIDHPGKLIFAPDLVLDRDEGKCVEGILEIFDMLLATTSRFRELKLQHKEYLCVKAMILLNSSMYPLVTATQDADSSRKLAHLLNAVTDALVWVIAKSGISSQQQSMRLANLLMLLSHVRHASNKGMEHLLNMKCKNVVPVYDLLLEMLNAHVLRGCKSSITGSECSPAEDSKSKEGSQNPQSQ
Sequence of Rho-associated protein kinase 1 (Q13464 whole entry): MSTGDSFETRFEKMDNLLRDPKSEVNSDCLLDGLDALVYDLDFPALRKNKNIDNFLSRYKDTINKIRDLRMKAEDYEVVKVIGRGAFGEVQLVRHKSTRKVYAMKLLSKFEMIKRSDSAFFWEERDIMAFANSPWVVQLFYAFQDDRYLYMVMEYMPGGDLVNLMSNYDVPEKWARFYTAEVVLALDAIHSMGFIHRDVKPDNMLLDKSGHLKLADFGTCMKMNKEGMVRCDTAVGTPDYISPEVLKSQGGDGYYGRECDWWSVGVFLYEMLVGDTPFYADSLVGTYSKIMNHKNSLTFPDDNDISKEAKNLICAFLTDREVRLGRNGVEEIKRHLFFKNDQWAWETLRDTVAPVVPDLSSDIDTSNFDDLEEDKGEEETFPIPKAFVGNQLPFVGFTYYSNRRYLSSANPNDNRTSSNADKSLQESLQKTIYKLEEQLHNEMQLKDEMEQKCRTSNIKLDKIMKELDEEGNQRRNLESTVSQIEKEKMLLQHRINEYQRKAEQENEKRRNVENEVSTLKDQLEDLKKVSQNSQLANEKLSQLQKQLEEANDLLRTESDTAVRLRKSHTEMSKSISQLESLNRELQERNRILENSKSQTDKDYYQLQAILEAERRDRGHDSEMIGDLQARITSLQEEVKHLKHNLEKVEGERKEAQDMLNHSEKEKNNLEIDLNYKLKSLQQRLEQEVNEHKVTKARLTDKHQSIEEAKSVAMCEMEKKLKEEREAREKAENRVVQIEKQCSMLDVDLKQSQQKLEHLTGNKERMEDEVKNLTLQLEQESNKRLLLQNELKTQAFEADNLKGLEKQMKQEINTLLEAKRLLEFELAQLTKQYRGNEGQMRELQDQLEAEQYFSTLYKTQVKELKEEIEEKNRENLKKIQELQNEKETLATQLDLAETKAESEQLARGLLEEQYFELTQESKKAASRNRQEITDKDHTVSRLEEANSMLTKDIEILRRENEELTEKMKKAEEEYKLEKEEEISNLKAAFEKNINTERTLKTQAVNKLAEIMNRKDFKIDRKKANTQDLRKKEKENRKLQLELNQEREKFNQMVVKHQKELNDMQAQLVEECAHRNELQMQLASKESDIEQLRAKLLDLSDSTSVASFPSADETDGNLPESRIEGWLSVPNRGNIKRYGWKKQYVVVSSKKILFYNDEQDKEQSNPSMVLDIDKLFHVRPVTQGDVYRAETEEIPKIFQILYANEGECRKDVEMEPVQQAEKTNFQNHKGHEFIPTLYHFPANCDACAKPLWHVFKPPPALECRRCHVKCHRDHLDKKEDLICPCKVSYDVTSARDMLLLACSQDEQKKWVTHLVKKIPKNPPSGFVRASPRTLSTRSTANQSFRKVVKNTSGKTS
Sequence of Nonstructural protein 1 (Q194T2 whole entry): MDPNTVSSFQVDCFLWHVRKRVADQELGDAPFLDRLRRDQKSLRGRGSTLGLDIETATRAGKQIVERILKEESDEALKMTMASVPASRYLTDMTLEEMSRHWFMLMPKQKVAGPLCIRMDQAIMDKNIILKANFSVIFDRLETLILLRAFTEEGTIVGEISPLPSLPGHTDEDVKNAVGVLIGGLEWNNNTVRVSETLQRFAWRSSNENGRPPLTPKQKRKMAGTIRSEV
Sequence of LIM domain kinase 1 (P53667 whole entry, the tested form may be a part): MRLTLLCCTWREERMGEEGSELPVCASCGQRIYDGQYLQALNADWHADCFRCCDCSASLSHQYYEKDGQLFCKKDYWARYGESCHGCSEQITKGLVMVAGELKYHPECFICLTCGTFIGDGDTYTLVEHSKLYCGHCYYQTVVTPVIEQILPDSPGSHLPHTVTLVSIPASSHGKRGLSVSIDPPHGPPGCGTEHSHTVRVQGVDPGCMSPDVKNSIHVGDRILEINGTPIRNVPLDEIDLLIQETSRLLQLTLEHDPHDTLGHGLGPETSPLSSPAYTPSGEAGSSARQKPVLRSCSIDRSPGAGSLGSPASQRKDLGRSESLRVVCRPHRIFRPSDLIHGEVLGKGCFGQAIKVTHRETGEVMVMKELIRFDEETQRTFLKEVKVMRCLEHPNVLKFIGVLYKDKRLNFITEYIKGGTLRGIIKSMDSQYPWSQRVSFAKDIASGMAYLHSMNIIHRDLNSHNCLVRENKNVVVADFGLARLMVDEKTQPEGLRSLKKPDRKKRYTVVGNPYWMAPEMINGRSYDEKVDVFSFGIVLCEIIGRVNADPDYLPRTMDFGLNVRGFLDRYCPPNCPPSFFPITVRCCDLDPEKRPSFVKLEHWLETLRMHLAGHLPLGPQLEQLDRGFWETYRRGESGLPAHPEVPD

## O=C(O)CC1=C(Nc2ccccc2)C(=O)N(c2ccccc2)C1c1ccc(Br)cc1 (stereo unspecified)
[1]
  IC50: 5.55 µM (active)
[2]
  IC50: 3.98 µM (active)

## Cc1nnc(SCc2cnc(-c3ccc(C(C)C)cc3)s2)n1C
[3]
  EC50: > 50 µM (active)
HEK293
  AC50: 4.43 µM (active)
[1]
  IC50: 1.28 µM (active)
[2]
  IC50: 10 µM (active)

## O=C1/C(=C/c2ccc([N+](=O)[O-])cc2)C=C(c2ccccc2)N1c1ccc(O)cc1
[4]
  IC50: > 66.6 µM (inactive)
Beta-galactosidase
  IC50: > 66.6 µM (inactive)
Melanocortin receptor 4
  IC50: > 64.6 µM (inactive)
[5]
  IC50: > 64.6 µM (inactive)

## COC1=C(Br)C(=O)c2ncccc2C1=O
[4]
  IC50: > 66.6 µM (inactive)
Beta-galactosidase
  IC50: > 66.6 µM (inactive)
Hexokinase HKDC1
  IC50: 3.56 µM (active)
Cysteine protease ATG4B
  IC50: 3.53 µM (active)
Phospholipase A2
  IC50: > 80 µM (inactive)
Genome polyprotein
  IC50: 3.41 µM (active)

## CC(C)[C@H](CN1CCC[C@H]1CN1C(N)=NC[C@@H]1Cc1ccccc1)N1C[C@@H](Cc2ccccc2)N(CCc2ccc(Cl)c(Cl)c2)C1=N
[6]
  IC50: > 20 µM (inactive)
Melanocortin receptor 4
  IC50: 7.16 µM (active)
[5]
  IC50: > 64.6 µM (inactive)

## CN(CCc1ccccc1)C(=O)c1ccc(NC(=O)Cc2ccc(NC(=O)C3CCN(C(=O)C4CCCC4)CC3)cc2)cc1
[7]
  IC50: 1.38 µM (active)

## O=C(Cc1cccc2cnccc12)NCc1ccc(Br)cc1
[8]
  Ki: 6.31 µM (active)
[9]
  Ki: 1.58 µM (active)

## Cc1nn(-c2ccccc2)c(Cl)c1/C=N/Nc1ccc(S(=O)(=O)Nc2ccccc2C(=O)O)cc1[N+](=O)[O-]
[10]
  EC50: 1.86 µM (active)
Estrogen receptor
  IC50: 6.84 µM (active)
Estrogen receptor beta [11]
  IC50: 7.26 µM (active)
Estrogen receptor beta [12]
  IC50: > 50 µM (not active)
Streptococcus
  EC50: 4.27 µM (active)
Nonstructural protein 1
  IC50: 67.6 µM (active)
Genome polyprotein
  IC50: 33.1 µM (active)
[13]
  IC50: 4.29 µM (active)

## Cc1ccccc1-c1cccc2nccn12
LIM domain kinase 1
  Ki: 79.4 µM (active)
[14]
  Ki: 63.1 µM (active)
[15]
  Ki: 12.6 µM (active)
[16]
  Ki: 15.8 µM (active)
[17]
  Ki: 39.8 µM (active)
[18]
  Ki: 79.4 µM (active)
